According to publication PMC10539501 (Nature Communications, 2023):
Starred links: 1 amine or outer side, 2 acyl side, 3 side chain; linkers in the order of their positions; H or OH if unused. Non-standard residues stand in square brackets, D forms with d. Residues, ends and D or L forms follow the SMILES beside them. X2 = CC(C)C[C@H](NC(=S)[C@@H](CC(C)C)N[*:1])C(=O)[*:2]; X3 = CC(C)C[C@H](N[*:1])C(=S)N[C@H](CC(C)C)C(=O)[*:2]; X4 = CC(C)C[C@H](N[*:1])C(=S)N1CCC[C@@H]1C(=O)[*:2]; X16 = CC(C)C[C@H](N[*:1])C(=S)N[C@H](C)C(=O)[*:2]; NMeL = CN[C@@H](CC(C)C)C(=O)O

Legend:
[1] = in vitro; type: in vitro ADME, human
[2] = tested on: Caco-2 cells; assay: in vitro; type: in vitro ADME, human; settings: Caco-2
[3] = rat, in vivo, po, 10 mg/kg
[4] = in vitro; settings: human, microsomes
[5] = PAMPA passive permeability; type: in vitro ADME;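 further: passive permeability across an artificial membrane in 96-well pre-coated PAMPA plates, which lack transporters and efflux systems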
[6] = Retention in hydrophobic C18 column by HPLC; settings: Supplementary Fig 3d, logD7.4 vs tR
[7] = target: pepsin (Sus scrofa, UniProt P00791); assay: in vitro; settings: simulated gastric fluid, pH 1.2
pepsin, sequence (P00791 60-385): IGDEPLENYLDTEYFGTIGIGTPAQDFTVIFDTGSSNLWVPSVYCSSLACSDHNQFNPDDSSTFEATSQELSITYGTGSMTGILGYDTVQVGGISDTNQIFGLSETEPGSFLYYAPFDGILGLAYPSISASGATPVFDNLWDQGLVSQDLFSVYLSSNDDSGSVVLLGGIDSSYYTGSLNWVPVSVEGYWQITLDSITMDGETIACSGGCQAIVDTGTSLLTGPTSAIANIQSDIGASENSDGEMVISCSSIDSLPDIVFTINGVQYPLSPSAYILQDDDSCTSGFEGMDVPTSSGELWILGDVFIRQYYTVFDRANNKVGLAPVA

[8] = physchem; settings: pH 7.4
[9] = in vitro; settings: both, human, plasma
[10] = HDX of amide protons by NMR in CDCl3:CD3OD (8:2)
[11] = HDX of amide protons by NMR in DMSO-d6:D2O (8:2); settings: HDX by NMR, 20% D2O in DMSO-d6
[12] = in vivo; settings: male, Wistar, rat
[13] = type: physicochemical
[14] = tested on: human liver microsomes
[15] = in vitro; settings: pig, simulated intestinal fluid
[16] = type: physicochemical; remark: listed apart in the source
[17] = in vitro; settings: both, human, plasma; remark: listed apart in the source
[18] = 20% CD3OD in CDCl3, % remaining after 24 hours
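Wherever Papp A-B avg (second block) is given: Caco-2 monolayers used 21 days after seeding in HBSS-HEPES buffer with 1% DMSO, donor and acceptor levels quantified by LC-MS/MS, TEER checked before and after.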
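Wherever Papp A-B set 1 (second block) is given: Caco-2 monolayers used 21 days after seeding in HBSS-HEPES buffer with 1% DMSO, donor and acceptor levels quantified by LC-MS/MS, TEER checked before and after.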
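Wherever Papp A-B set 2 (second block) is given: Caco-2 monolayers used 21 days after seeding in HBSS-HEPES buffer with 1% DMSO, donor and acceptor levels quantified by LC-MS/MS, TEER checked before and after.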
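Wherever Papp B-A avg (second block) is given: Caco-2 monolayers used 21 days after seeding in HBSS-HEPES buffer with 1% DMSO, donor and acceptor levels quantified by LC-MS/MS, TEER checked before and after.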

CC(C)C[C@@H]1NC(=O)[C@H](Cc2ccc(O)cc2)NC(=O)[C@H]2CCCN2C(=O)[C@H](CC(C)C)NC(=O)[C@H](CC(C)C)NC(=S)[C@@H](CC(C)C)NC1=O [10a] (cyclo(L[dP]YL[X2]))
Papp A→B ([1]; Caco-2, Papp A-B + Elacridar avg): 13 ×10⁻⁶ cm/s
Papp A→B ([1]; Caco-2, Papp A-B avg): 3.25 ×10⁻⁶ cm/s
Papp B→A ([1]; Caco-2, Papp B-A + Elacridar avg): 16.9 ×10⁻⁶ cm/s
Papp B→A ([1]; Caco-2, Papp B-A avg): 75.4 ×10⁻⁶ cm/s
Papp A-B avg (second block) [2]: 3.25 ×10⁻⁶ cm/s
Papp A-B set 1 (second block) [2]: 3.14 ×10⁻⁶ cm/s
Papp A-B set 2 (second block) [2]: 3.36 ×10⁻⁶ cm/s
Papp B-A avg (second block) [2]: 75.4 ×10⁻⁶ cm/s
Papp B-A set 1 (second block) [2]: 77.4 ×10⁻⁶ cm/s
Papp B-A set 2 (second block) [2]: 73.3 ×10⁻⁶ cm/s
AUClast p.o [3]: 26.9 ng·h/mL
time over which the peptide is detectable in plasma [3]: ≥ 8 h
microsomal CLint [4]: 29.5 µL/min/mg
remaining at 5 min [4]: 75%
remaining at 10 min [4]: 65%
remaining at 20 min [4]: 64%
remaining at 0.5 h [4]: 58%
remaining at 0.75 h [4]: 52%
remaining at 1 h [4]: 44%
Pe set1 [5]: 8.08 ×10⁻⁶ cm/s
Pe set2 [5]: 12.5 ×10⁻⁶ cm/s
Pe set3 [5]: 11.81 ×10⁻⁶ cm/s
Papp ([5]; Pe Avg): 10.8 ×10⁻⁶ cm/s
tR [6]: 10.8 min
half-life [7]: 0.7 h
remaining at 5 min [7]: 83%
remaining at 10 min [7]: 74%
remaining at 20 min [7]: 63%
remaining at 0.5 h [7]: 56%
remaining at 1 h [7]: 42%
remaining at 2 h [7]: 34%
remaining at 4 h [7]: 31%
remaining at 8 h [7]: 19%
remaining at 12 h [7]: 11%
remaining at 24 h [7]: 7%
logD [8]: 1.21
half-life [9]: 22 h
remaining at 1 h [9]: 94%
remaining at 3 h [9]: 84%
remaining at 5 h [9]: 78%
remaining at 7 h [9]: 72%
remaining at 9 h [9]: 66%
remaining at 12 h [9]: 56%
remaining at 24 h [9]: 45%
remaining at 36 h [9]: 33%
remaining at 48 h [9]: 23%
remaining at 60 h [9]: 22%
remaining at 72 h [9]: 21%
Half-life of D-Leu1 amide proton (HDX) ([10]; 20% CD3OD in CDCl3): 19.25 h
Half-life of Leu2 amide proton (HDX) ([10]; 20% CD3OD in CDCl3): 0.333 h
Half-life of Leu3 amide proton (HDX) ([10]; 20% CD3OD in CDCl3): > 24 h
Half-life of Leu6 amide proton (HDX) ([10]; 20% CD3OD in CDCl3): > 24 h
Half-life of Tyr5 amide proton (HDX) ([10]; 20% CD3OD in CDCl3): > 24 h
% intact NH, Leu3 [10, 18]: 80%
% intact NH, Leu6 [10, 18]: 89%
% intact NH, Tyr5 [10, 18]: 80%
Half-life of D-Leu1 amide proton (HDX) [11]: 2.83 h
Half-life of Leu2 amide proton (HDX) [11]: 1.83 h
Half-life of Leu3 amide proton (HDX) [11]: 12 h
Half-life of Leu6 amide proton (HDX) [11]: 13.3 h
Half-life of Tyr5 amide proton (HDX) [11]: 0.838 h
AUC(0-t) ([12]; iv): 146 ng·h/mL
Cmax ([12]; iv): 48.1 ng/mL
MRT ([12]; iv): 2.8 h
Vd ([12]; iv): 28.6 L/kg
clearance ([12]; iv): 91.1 mL/min/kg
bioavailability ([12]; po): 1.8%
AUC(0-t) ([12]; po, 10 mg/kg): 26.9 ng·h/mL
Cmax ([12]; po, 10 mg/kg): 15 ng/mL
MRT ([12]; po, 10 mg/kg): 2 h
level at 3 h ([12]; po, 10 mg/kg): 3 ng/mL
logD heptane ethylene glycol [13]: 0.97
Half lives [14]: 46.9
half-life [15]: 2.45 h
remaining at 10 min [15]: 78.4%
remaining at 0.5 h [15]: 66%
remaining at 1 h [15]: 55.9%
remaining at 2 h [15]: 49.2%
remaining at 4 h [15]: 34%
remaining at 8 h [15]: 26.3%
remaining at 12 h [15]: 18.8%
remaining at 24 h [15]: 11%
% solubility [16]: 58%
fraction unbound [17]: 0.28

CC(C)C[C@@H]1NC(=O)[C@@H](CC(C)C)NC(=O)[C@H](CC(C)C)N(C)C(=O)[C@H](Cc2ccc(O)cc2)NC(=O)[C@H]2CCCN2C(=O)[C@H](CC(C)C)NC1=O [10k] (cyclo(LL[dP]Y[NMeL][dL]))
Fold Change of AUClast p.o [3]: 393
microsomal CLint [4]: 144 µL/min/mg
remaining at 2 min [4]: 67%
remaining at 10 min [4]: 50%
remaining at 20 min [4]: 28%
remaining at 0.5 h [4]: 16%
remaining at 0.75 h [4]: 4.69%
remaining at 1 h [4]: 5.45%
Papp ([5]; Pe Avg): 6.13 ×10⁻⁶ cm/s
half-life [7]: 1.75 h
remaining at 2 min [7]: 97%
remaining at 10 min [7]: 84%
remaining at 20 min [7]: 77%
remaining at 0.5 h [7]: 71%
remaining at 1 h [7]: 65%
remaining at 2 h [7]: 46%
remaining at 4 h [7]: 19%
remaining at 8 h [7]: 11%
remaining at 12 h [7]: 7%
logD [8]: 1.2
half-life [9]: 12 h
remaining at 2 h [9]: 82%
remaining at 4 h [9]: 69%
remaining at 8 h [9]: 57%
remaining at 16 h [9]: 39%
remaining at 24 h [9]: 28%
remaining at 48 h [9]: 8%
remaining at 72 h [9]: 2.65%
AUC(0-t) ([12]; iv): 510 ng·h/mL
Cmax ([12]; iv): 1170 ng/mL
MRT ([12]; iv): 0.4 h
Vd ([12]; iv): 0.8 L/kg
clearance ([12]; iv): 33.3 mL/min/kg
bioavailability ([12]; po): 6.8%
AUC(0-t) ([12]; po, 10 mg/kg): 345 ng·h/mL
Cmax ([12]; po, 10 mg/kg): 55.9 ng/mL
MRT ([12]; po, 10 mg/kg): 9 h
level at 3 h ([12]; po, 10 mg/kg): 26.6 ng/mL
Half lives [14]: 10.3
half-life [15]: 1.55 h
remaining at 10 min [15]: 88%
remaining at 0.5 h [15]: 75%
remaining at 1 h [15]: 62%
remaining at 2 h [15]: 39%
remaining at 4 h [15]: 30%
remaining at 8 h [15]: 6%
remaining at 12 h [15]: 3%
fraction unbound [17]: 0.53

CC(C)C[C@@H]1NC(=O)[C@@H](CC(C)C)NC(=O)[C@H]2CCCN2C(=S)[C@H](CC(C)C)NC(=O)[C@@H](CC(C)C)NC(=O)[C@H](CC(C)C)NC(=O)[C@@H]2CCCN2C(=O)[C@@H](C)NC1=O [12b] (cyclo(L[dL][X4][dL]L[dA]P))
Papp ([5]; Pe Avg): 2.6 ×10⁻⁶ cm/s
tR [6]: 15.5 min
logD [8]: 1.61
% solubility [16]: 49%

CC(C)C[C@@H]1NC(=O)[C@@H]2CCCN2C(=O)[C@@H](C)NC(=S)[C@H](CC(C)C)NC(=O)[C@@H](CC(C)C)NC(=O)[C@H]2CCCN2C(=O)[C@H](CC(C)C)NC(=O)[C@@H](CC(C)C)NC1=O [12e] (cyclo([dL]L[dP][dL][X16]PL))
Papp ([5]; Pe Avg): 5.7 ×10⁻⁶ cm/s
tR [6]: 15 min
logD [8]: 1.37
% solubility [16]: 41%

CC(C)C[C@@H]1NC(=O)[C@@H](CC(C)C)NC(=O)[C@H]2CCCN2C(=O)[C@H](CC(C)C)NC(=O)[C@@H](CC(C)C)NC(=S)[C@H](CC(C)C)NC(=O)[C@@H]2CCCN2C(=O)[C@@H](C)NC1=O [12h] (cyclo([X3]L[dP][dL]L[dA]P))
Papp ([5]; Pe Avg): 7.7 ×10⁻⁶ cm/s
tR [6]: 16.4 min
logD [8]: 1.49
% solubility [16]: 40%

CC[C@H](C)[C@@H]1NC(=O)[C@@H]2CCCN2C(=O)[C@H]([C@@H](C)CC)NC(=O)[C@@H]2CCCN2C(=O)[C@H](Cc2ccccc2)NC(=O)[C@H](C)NC(=O)[C@H](C)NC1=O [compound 11, cyclo(-Ile^1-Ala-Ala-Phe-Pro-Ile-Pro^7-)] (cyclo(AAFPIPI))
Papp ([5]; Pe (PAMPA vs logD7.4)): 0.41 ×10⁻⁶ cm/s
Papp ([5]; Pe Avg): 0.4 ×10⁻⁶ cm/s
tR [6]: 5.299 min
logD [8]: 0.1
% solubility [16]: 95%

CC(C)C[C@@H]1NC(=O)[C@@H](CC(C)C)NC(=O)[C@H]2CCCN2C(=O)[C@H](CC(C)C)NC(=O)[C@@H](CC(C)C)NC(=O)[C@H](CC(C)C)NC(=O)[C@@H]2CCCN2C(=O)[C@@H](C)NC1=O [compound 12, cyclo(-D-Leu^1-Leu-D-Pro-D-Leu-Leu-D-Ala-Pro-Leu^8-)] (cyclo(L[dA]PL[dL]L[dP][dL]))
Papp ([5]; Pe Avg): 3 ×10⁻⁶ cm/s
tR [6]: 12.6 min
logD [8]: 0.75
% solubility [16]: 94%
